Measured values taken from US9915647B2 (priority 2011, dated 2018).

Test system: INS1E cells
Format: cell-based, rat

Row | SMILES | digitonin concentration giving maximal and sustained ADP-stimulated respiration [%] | portion of ADP stimulated respiration that is oligomycin sensitive [%]
1 | C[C@@H]1CC[C@@]2(OC1)O[C@H]1[C@@H](O)[C@H]3[C@@H]4CC[C@H]5C[C@@H](O[C@@H]6O[C@H](CO)[C@H](O[C@@H]7O[C@H](CO)[C@@H](O)[C@H](O[C@@H]8OC[C@@H](O)[C@H](O)[C@H]8O)[C@H]7O[C@@H]7O[C@H](CO)[C@H](O)[C@H](O[C@@H]8O[C@H](CO)[C@@H](O)[C@H](O)[C@H]8O)[C@H]7O)[C@H](O)[C@H]6O)[C@H](O)C[C@]5(C)[C@H]4CC[C@]3(C)[C@H]1[C@@H]2C [digitonin] | 0.01 | 
2 | CC[C@H]1/C=C/C=C/C[C@@H](C)[C@H](O)[C@@](C)(O)C(=O)[C@@H](C)[C@H](O)[C@@H](C)C(=O)[C@@H](C)[C@H](O)[C@@H](C)/C=C/C(=O)O[C@@H]2[C@H](C)[C@H](CC1)O[C@]1(CC[C@H](C)[C@H](C[C@@H](C)O)O1)[C@H]2C [oligomycin] |  | ~75
